These molecules were tested on RSV Long strain (assay: Viral cytopathic effect (CPE) assay, RSV Long strain). Details: human respiratory syncytial virus, 144 h, cell viability after 6 days (Cell Counting kit-8).
Assay type: cell-based, Respiratory Syncytial Virus
Procedure: EC50: the concentration of a compound where 50% of its maximal protection effect against viral induced CPE is observed
LongStrain: an A subtype RSV strain obtained from ATCC with catalog number VR-26
To measure anti-RSV activity of compounds, 96-well plates are seeded with 6×10^3 cells per well in Dulbecco's modified Eagle's medium (DMEM) containing 10% fetal bovine serum (FBS). Cells are infected the next day with sufficient RSV Long strain (ATCC) to produce an approximately 80-90% cytopathic effect after 6 days, in the presence of serial half-log diluted compound in a total volume of […] per well. The viability of cells is assessed after 6 days using Cell Counting kit-8 (Dojindo Molecular Technologies). The absorbance at 450 nm and referenced at 630 nm is measured to determine 50% effective concentration (EC50)

Point of comparison: `O=C1N(Cc2cc3cc(Cl)ccc3n2CCCS(=O)(=O)N2CCOCC2)c2cnccc2C12CC2` [Example 7-4, 1′-({5-Chloro-1-[3-(morpholin-4-ylsulfonyl)propyl]-1H-indol-2-yl}methyl)spiro[cyclopropane-1,3′-pyrrolo[2,3-c]pyridin]-2′(1′H)-one], EC50 14 nM. Against it:
- CC(=O)NCCn1c(CN2C(=O)C3(CC3)c3ccncc32)cc2cc(Cl)ccc21 [Example 26-3, N-(2-{5-Chloro-2-[(2′-oxospiro[cyclopropane-1,3′-pyrrolo[2,3-c]pyridin]-1′(2′H)-yl)methyl]-1H-indol-1-yl}ethyl)acetamide] — 1.8-fold higher, 25 nM
- CCS(=O)(=O)CCc1c(CN2C(=O)C3(CC3)c3cccnc32)[nH]c2cc(Cl)ccc12 [Example 32-1, 1′-({6-Chloro-3-[2-(ethylsulfonyl)ethyl]-1H-indol-2-yl}methyl)spiro[cyclopropane-1,3′-pyrrolo[2,3-b]pyridin]-2′(1′H)-one] — 1.6-fold lower, 9 nM
- CS(=O)(=O)CCCCn1c(CN2C(=O)C3(CC3)c3ccncc32)cc2cc(Cl)cnc21 [Example 4-16, 1′-({5-Chloro-1-[4-(methylsulfonyl)butyl]-1H-pyrrolo[2,3-b]pyridin-2-yl}methyl)spiro[cyclopropane-1,3′-pyrrolo[2,3-c]pyridin]-2′(1′H)-one] — 3.9-fold higher, 54.9 nM
- CS(=N)(=O)CCCCn1c(CN2C(=O)C3(CC3)c3ccncc32)cc2cc(Cl)cnc21 (stereo not drawn) [Example 14-3, 1′-({5-Chloro-1-[4-(S-methylsulfonimidoyl)butyl]-1H-pyrrolo[2,3-b]pyridin-2-yl}methyl)spiro[cyclopropane-1,3′-pyrrolo[2,3-c]pyridin]-2′(1′H)-one] — 5.3-fold higher, 74 nM
- O=C1N(Cc2cc3cc(Cl)ncc3n2CCC2CSC2)c2cnccc2C12CC2 [Example 4-10, 1′-({5-Chloro-1[2-(thietan-3-yl)ethyl]-1H-pyrrolo[2,3-c]pyridin-2-yl}methyl)spiro[cyclopropane-1,3′-pyrrolo[2,3-c]pyridin]-2′(1′H)-one] — 5.3-fold higher, 74 nM
- CS(=O)(=O)CCn1c(CN2C(=O)C3(CC3)c3ccncc32)cc2cc(F)c(F)cc21 [Example 1-11, 1′-({5,6-Difluoro-1-[2-(methylsulfonyl)ethyl]-1H-indol-2-yl}methyl)spiro[cyclopropane-1,3′-pyrrolo[2,3-c]pyridin]-2′(1′H)-one] — 67-fold higher, 935 nM
- COC(=O)CCCn1c(CN2C(=O)C3(CC3)c3ccncc32)cc2cc(Cl)ccc21 [Example 17, Methyl 4-{5-chloro-2-[(2′-oxospiro[cyclopropane-1,3′-pyrrolo[2,3-c]pyridin]-1′(2′H)-yl)methyl]-1H-indol-1-yl}butanoate] — within 1.5-fold, 18.6 nM
- O=C1N(Cc2cc3cc(Cl)cnc3n2CCC2CS(=O)(=O)C2)c2cnccc2C12CC2 [Example 12, 1′-({5-Chloro-1-[2-(1,1-dioxidothietan-3-yl)ethyl]-1H-pyrrolo[2,3-b]pyridin-2-yl}methyl)spiro[cyclopropane-1,3′-pyrrolo[2,3-c]pyridin]-2′(1′H)-one] — 2.1-fold higher, 29 nM
- CCS(=O)(=O)CCn1c(CN2C(=O)C3(CC3)c3ccncc32)cc2cc(Cl)ccc21 [Example 2-1, 1′-({5-Chloro-1-[2-(ethylsulfonyl)ethyl]-1H-indol-2-yl}methyl)spiro[cyclopropane-1,3′-pyrrolo[2,3-c]pyridin]-2′(1′H)-one] — 1.8-fold lower, 7.67 nM
- NC1(Cn2c(CN3C(=O)C4(CC4)c4ccncc43)nc3cc(Cl)ccc32)COC1 [Example 39-1, 1′-({1-[(3-Aminooxetan-3-yl)methyl]-5-chloro-1H-benzimidazol-2-yl}methyl)spiro[cyclopropane-1,3′-pyrrolo[2,3-c]pyridin]-2′(1′H)-one] — within 1.5-fold, 18 nM
- CS(=O)(=O)CCn1c(CN2C(=O)C3(CC3)c3ccncc32)cc2cc(Br)ccc21 [Example 1-5, 1′-({5-Bromo-1-[2-(methylsulfonyl)ethyl]-1H-indol-2-yl}methyl)spiro[cyclopropane-1,3′-pyrrolo[2,3-c]pyridin]-2′(1′H)-one] — the same, 14 nM
- O=C(O)CCn1c(CN2C(=O)C3(CC3)c3ccncc32)cc2cc(Cl)cc(F)c21 [Example 16-2, 3-{5-Chloro-7-fluoro-2-[(2′-oxospiro[cyclopropane-1,3′-pyrrolo[2,3-c]pyridin]-1′(2′H)-yl)methyl]-1H-indol-1-yl}propanoic acid] — 21-fold higher, 300 nM
- O=C1N(Cc2cc3cc(Cl)ccc3n2CCCO)c2cnccc2C12CC2 [Example 8, 1′-{[5-Chloro-1-(3-hydroxypropyl)-1H-indol-2-yl]methyl}spiro[cyclopropane-1,3′-pyrrolo[2,3-c]pyridin]-2′(1′H)-one] — 4.1-fold higher, 58 nM
- CS(=O)(=O)CCc1c(CN2C(=O)C3(CC3)c3ccncc32)[nH]c2cc(Cl)ccc12 [Example 32-2, 1′-({6-Chloro-3-[2-(methylsulfonyl)ethyl]-1H-indol-2-yl}methyl)spiro[cyclopropane-1,3′-pyrrolo[2,3-c]pyridin]-2′(1′H)-one] — 2.8-fold lower, 5 nM
- Cc1ccc2c(c1)cc(CN1C(=O)C3(CC3)c3ccncc31)n2CCS(C)(=O)=O [Example 1-13, 1′-({5-Methyl-1-[2-(methylsulfonyl)ethyl]-1H-indol-2-yl}methyl)spiro[cyclopropane-1,3′-pyrrolo[2,3-c]pyridin]-2′(1′H)-one] — 1.6-fold lower, 9 nM
- COC(=O)NCCCn1c(CN2C(=O)C3(CC3)c3ccncc32)cc2cc(Cl)ccc21 [Example 30, Methyl(3-{5-chloro-2-[(2′-oxospiro[cyclopropane-1,3′-pyrrolo[2,3-c]pyridin]-1′(2′H)-yl)methyl]-1H-indol-1-yl}propyl)carbamate] — within 1.5-fold, 20 nM
- CS(=O)(=O)CCCCn1c(CN2C(=O)C3(CC3)c3ccncc32)cc2nc(Cl)ccc21 [Example 4-5, 1′-({5-Chloro-1-[4-(methylsulfonyl)butyl]-1H-pyrrolo[3,2-b]pyridin-2-yl}methyl)spiro[cyclopropane-1,3′-pyrrolo[2,3-c]pyridin]-2′(1′H)-one] — 1.6-fold higher, 22.1 nM
- O=C1N(Cc2cc3cc(Cl)ncc3n2CCCS(=O)(=O)C2CC2)c2cnccc2C12CC2 [Example 4-9, 1′-({5-Chloro-1-[3-(cyclopropylsulfonyl)propyl]-1H-pyrrolo[2,3-c]pyridin-2-yl}methyl)spiro[cyclopropane-1,3′-pyrrolo[2,3-c]pyridin]-2′(1′H)-one] — 3.5-fold higher, 48.7 nM
- CS(=O)(=O)CCCCn1c(CN2C(=O)C3(CC3)c3ccncc32)cc2cc(Cl)ccc21 [Example 4-1, 1′-({5-Chloro-1-[4-(methylsulfonyl)butyl]-1H-indol-2-yl}methyl)spiro[cyclopropane-1,3′-pyrrolo[2,3-c]pyridin]-2′(1′H)-one] — 2.4-fold lower, 5.9 nM
- CN(C)S(=O)(=O)CCn1c(CN2C(=O)C3(CC3)c3ccncc32)cc2cc(Cl)ccc21 [Example 7-3, 2-{5-Chloro-2-[(2′-oxospiro[cyclopropane-1,3′-pyrrolo[2,3-c]pyridin]-1′(2′H)-yl)methyl]-1H-indol-1-yl}-N,N-dimethylethanesulfonamide] — 1.6-fold higher, 23 nM
- O=C1N(Cc2nc3cc(Cl)ccc3n2CC2COC2)c2cnccc2C12CC2 [Example 38-1, 1′-{[5-Chloro-1-(oxetan-3-ylmethyl)-1H-benzimidazol-2-yl]methyl}spiro[cyclopropane-1,3′-pyrrolo[2,3-c]pyridin]-2′(1′H)-one] — 4.7-fold lower, 3 nM
- CCS(=O)(=O)CCCn1c(CN2C(=O)C3(CC3)c3ccncc32)cc2cc(Cl)cnc21 [Example 23, 1′-({5-Chloro-1-[3-(ethylsulfonyl)propyl]-1H-pyrrolo[2,3-b]pyridin-2-yl}methyl)spiro[cyclopropane-1,3′-pyrrolo[2,3-c]pyridin]-2′(1′H)-one] — 4.5-fold higher, 63 nM
- CS(=O)(=O)CCCn1c(CN2C(=O)C3(CC3)c3ccncc32)nc2cc(Cl)ccc21 [Example 36-1, 1′-({5-Chloro-1-[3-(methylsulfonyl)propyl]-1H-benzimidazol-2-yl}methyl)spiro[cyclopropane-1,3′-pyrrolo[2,3-c]pyridin]-2′(1′H)-one] — 7-fold lower, 2 nM
- [2H]C([2H])(c1cc2cc(Cl)ccc2n1CCCS(C)(=O)=O)N1C(=O)C2(CC2)c2ccncc21 [Example 10, 1′[{-5-Chloro-1-[3-(methylsulfonyl)propyl]-1H-indol-2-yl}(^2H2)methyl]spiro[cyclopropane-1,3′-pyrrolo[2,3-c]pyridin]-2′(1′H)-one] — within 1.5-fold, 19 nM
- C[S+]([O-])CCCn1c(CN2C(=O)C3(CC3)c3ccncc32)cc2cc(Cl)ccc21 (stereo not drawn) [Example 5-1, 1′-({5-Chloro-1-[3-(methylsulfinyl)propyl]-1H-indol-2-yl}methyl)spiro[cyclopropane-1,3′-pyrrolo[2,3-c]pyridin]-2′(1′H)-one] — 1.6-fold lower, 9 nM
- O=C1CNC(=O)N1CCn1c(CN2C(=O)C3(CC3)c3ccncc32)cc2cc(Cl)ccc21 [Example 20, 3-(2-{5-Chloro-2-[(2′-oxospiro[cyclopropane-1,3′-pyrrolo[2,3-c]pyridin]-1′(2′H)-yl)methyl]-1H-indol-1-yl}ethyl)imidazolidine-2,4-dione] — 250-fold higher, 3480 nM
- NC(=O)CCn1c(CN2C(=O)C3(CC3)c3ccncc32)cc2cc(Cl)ccc21 [Example 18-1, 3-{5-Chloro-2-[(2′-oxospiro[cyclopropane-1,3′-pyrrolo[2,3-c]pyridin]-1′(2′H)-yl)methyl]-1H-indol-1-yl}propanamide] — within 1.5-fold, 17 nM
- [2H]C([2H])(c1cc2cc(Cl)ccc2n1CCS(C)(=O)=O)N1C(=O)C2(CC2)c2ccncc21 [Example 9, 1′-[{5-Chloro-1-[2-(methylsulfonyl)ethyl]-1H-indol-2-yl}(^2H2)methyl]spiro[cyclopropane-1,3′-pyrrolo[2,3-c]pyridin]-2′(1′H)-one] — within 1.5-fold, 19 nM
- CS(=O)(=O)CCn1c(CN2C(=O)C3(CC3)c3ccncc32)cc2c(Cl)cccc21 [Example 1-6, 1′-({4-Chloro-1-[2-(methylsulfonyl)ethyl]-1H-indol-2-yl}methyl)spiro[cyclopropane-1,3′-pyrrolo[2,3-c]pyridin]-2′(1′H)-one] — 120-fold higher, 1670 nM

From patent publication US10189838B2, “Aza-oxo-indoles for the treatment and prophylaxis of respiratory syncytial virus infection” (Hoffmann-La Roche Inc., priority 2013, dated 2019)
